ChEMBL document CHEMBL4145553, “Design, synthesis, and biological evaluation of novel amide and hydrazide based thioether analogs targeting Histone deacteylase (HDAC) enzymes” (Eur J Med Chem, 2018)

Tests used:
Assay type in all cases: functional
[1] = tested on: MDA-MB-435; test: Growth inhibition of human MDA-MB-435 cells assessed as cell growth at 10^-8 M incubated for 48 hrs by sulforhodamine B assay relative to control; conditions: MDA-MB-435, 48 h, read-out: Activity
[2] = tested on: SN12C; test: Growth inhibition of human SN12C cells assessed as cell growth at 10^-5 M incubated for 48 hrs by sulforhodamine B assay relative to control; conditions: read-out: Activity
[3] = tested on: SR; test: Growth inhibition of human SR cells assessed as cell growth at 10^-5 M incubated for 48 hrs by sulforhodamine B assay relative to control; conditions: read-out: Activity
[4] = tested on: DU-145; test: Growth inhibition of human DU145 cells assessed as cell growth at 10^-8 M incubated for 48 hrs by sulforhodamine B assay relative to control; conditions: DU-145, 48 h, read-out: Activity
[5] = tested on: EKVX; test: Growth inhibition of human EKVX cells assessed as cell growth at 10^-7 M incubated for 48 hrs by sulforhodamine B assay relative to control; conditions: read-out: Activity
[6] = tested on: SK-OV-3; test: Growth inhibition of human SKOV3 cells assessed as cell growth at 10^-7 M incubated for 48 hrs by sulforhodamine B assay relative to control; conditions: SK-OV-3, 48 h, read-out: Activity
[7] = tested on: COLO 205; test: Growth inhibition of human COLO205 cells assessed as cell growth at 10^-6 M incubated for 48 hrs by sulforhodamine B assay relative to control; conditions: COLO 205, 48 h, read-out: Activity
[8] = tested on: SK-OV-3; test: Growth inhibition of human SKOV3 cells assessed as cell growth at 10^-8 M incubated for 48 hrs by sulforhodamine B assay relative to control; conditions: SK-OV-3, 48 h, read-out: Activity
[9] = tested on: HCT-116; test: Growth inhibition of human HCT116 cells assessed as cell growth at 10^-6 M incubated for 48 hrs by sulforhodamine B assay relative to control; conditions: HCT-116, 48 h, read-out: Activity
[10] = tested on: HCC 2998; test: Growth inhibition of human HCC2998 cells assessed as cell growth at 10^-4 M incubated for 48 hrs by sulforhodamine B assay relative to control; conditions: HCC 2998, 48 h, read-out: Activity
[11] = tested on: MCF7; test: Growth inhibition of human MCF7 cells assessed as cell growth at 10^-4 M incubated for 48 hrs by sulforhodamine B assay relative to control; conditions: MCF7, 48 h, read-out: Activity
[12] = tested on: OVCAR-3; test: Growth inhibition of human OVCAR3 cells incubated for 48 hrs by sulforhodamine B assay; conditions: OVCAR-3, 48 h
[13] = tested on: RPMI-8226; test: Growth inhibition of human RPMI8226 cells assessed as cell growth at 10^-5 M incubated for 48 hrs by sulforhodamine B assay relative to control; conditions: RPMI-8226, 48 h, read-out: Activity
[14] = tested on: MDA-MB-435; test: Growth inhibition of human MDA-MB-435 cells assessed as cell growth at 10^-5 M incubated for 48 hrs by sulforhodamine B assay relative to control; conditions: MDA-MB-435, 48 h, read-out: Activity
[15] = tested on: MDA-MB-231; test: Growth inhibition of human MDA-MB-231 cells assessed as cell growth at 10^-4 M incubated for 48 hrs by sulforhodamine B assay relative to control; conditions: MDA-MB-231, 48 h, read-out: Activity
[16] = tested on: SNB-19; test: Growth inhibition of human SNB19 cells assessed as cell growth at 10^-4 M incubated for 48 hrs by sulforhodamine B assay relative to control; conditions: SNB-19, 48 h, read-out: Activity
[17] = tested on: MDA-MB-468; test: Growth inhibition of human MDA-MB-468 cells assessed as cell growth at 10^-5 M incubated for 48 hrs by sulforhodamine B assay relative to control; conditions: MDA-MB-468, 48 h, read-out: Activity
[18] = tested on: MOLT-4; test: Growth inhibition of human MOLT4 cells assessed as cell growth at 10^-4 M incubated for 48 hrs by sulforhodamine B assay relative to control; conditions: MOLT-4, 48 h, read-out: Activity
[19] = tested on: U-251; test: Growth inhibition of human U251 cells assessed as cell growth at 10^-5 M incubated for 48 hrs by sulforhodamine B assay relative to control; conditions: U-251, 48 h, read-out: Activity
[20] = tested on: MDA-MB-468; test: Growth inhibition of human MDA-MB-468 cells assessed as cell growth at 10^-7 M incubated for 48 hrs by sulforhodamine B assay relative to control; conditions: MDA-MB-468, 48 h, read-out: Activity
[21] = tested on: OVCAR-5; test: Growth inhibition of human OVCAR5 cells assessed as cell growth at 10^-6 M incubated for 48 hrs by sulforhodamine B assay relative to control; conditions: OVCAR-5, 48 h, read-out: Activity
[22] = tested on: HL-60(TB); test: Growth inhibition of human HL-60(TB) cells assessed as cell growth at 10^-6 M incubated for 48 hrs by sulforhodamine B assay relative to control; conditions: HL-60, 48 h, read-out: Activity
[23] = tested on: U-251; test: Growth inhibition of human U251 cells incubated for 48 hrs by sulforhodamine B assay; conditions: U-251, 48 h
[24] = tested on: HT-29; test: Growth inhibition of human HT-29 cells assessed as cell growth at 10^-6 M incubated for 48 hrs by sulforhodamine B assay relative to control; conditions: HT-29, 48 h, read-out: Activity
[25] = tested on: SF-268; test: Growth inhibition of human SF268 cells assessed as cell growth at 10^-7 M incubated for 48 hrs by sulforhodamine B assay relative to control; conditions: SF-268, 48 h, read-out: Activity
[26] = tested on: OVCAR-4; test: Growth inhibition of human OVCAR4 cells assessed as cell growth at 10^-7 M incubated for 48 hrs by sulforhodamine B assay relative to control; conditions: OVCAR-4, 48 h, read-out: Activity
[27] = tested on: HCC 2998; test: Growth inhibition of human HCC2998 cells assessed as cell growth at 10^-8 M incubated for 48 hrs by sulforhodamine B assay relative to control; conditions: HCC 2998, 48 h, read-out: Activity
[28] = tested on: SW-620; test: Growth inhibition of human SW620 cells assessed as cell growth at 10^-6 M incubated for 48 hrs by sulforhodamine B assay relative to control; conditions: SW-620, 48 h, read-out: Activity
[29] = tested on: OVCAR-8; test: Growth inhibition of human OVCAR8 cells assessed as cell growth at 10^-6 M incubated for 48 hrs by sulforhodamine B assay relative to control; conditions: OVCAR-8, 48 h, read-out: Activity
[30] = tested on: SK-MEL-28; test: Growth inhibition of human SK-MEL-28 cells assessed as cell growth at 10^-7 M incubated for 48 hrs by sulforhodamine B assay relative to control; conditions: SK-MEL-28, 48 h, read-out: Activity
[31] = tested on: NCI-H23; test: Growth inhibition of human NCI-H23 cells assessed as cell growth at 10^-7 M incubated for 48 hrs by sulforhodamine B assay relative to control; conditions: NCI-H23, 48 h, read-out: Activity
[32] = read-out: LC50 (the source's name)
[33] = read-out: pLC50 (the source's name) (converted)

CCS/C(Nc1ccccc1)=C(\C#N)C(=O)N/N=C\c1ccc(Cl)cc1Cl
growth at 0.01 µM [1]: 95%
growth at 10 µM [2]: 41%
growth at 10 µM [3]: 28%
growth at 0.01 µM [4]: 105%
growth at 0.1 µM [5]: 88%
growth at 0.1 µM [6]: 86%
growth at 1 µM [7]: 99%
growth at 0.01 µM [8]: 99%
growth at 1 µM [9]: 89%
growth at 100 µM [10]: 35%
growth at 100 µM [11]: 9%
GI50 ([12]; read-out: GI50): 2.8 µM
CC50 [12, 32]: > 100 µM
TGI ([12]; read-out: TGI): 10.8 µM
GI50 ([12]; read-out: pGI50 (converted)): 2.82 µM
CC50 [12, 33]: > 100 µM
TGI ([12]; read-out: pTGI (converted)): 10.7 µM
growth at 10 µM [13]: 18%
growth at 10 µM [14]: -53%
growth at 100 µM [15]: 9%
growth at 100 µM [16]: 21%
growth at 10 µM [17]: -3%
growth at 100 µM [18]: 19%
growth at 10 µM [19]: 20%
growth at 0.1 µM [20]: 88%
growth at 1 µM [21]: 101%
growth at 1 µM [22]: 93%
GI50 ([23]; read-out: GI50): 3.95 µM
CC50 [23, 32]: > 100 µM
TGI ([23]; read-out: TGI): > 100 µM
GI50 ([23]; read-out: pGI50 (converted)): 3.98 µM
CC50 [23, 33]: > 100 µM
TGI ([23]; read-out: pTGI): > 100 µM
growth at 1 µM [24]: 101%
growth at 0.1 µM [25]: 94%
growth at 0.1 µM [26]: 89%
growth at 0.01 µM [27]: 101%
growth at 1 µM [28]: 88%
growth at 1 µM [29]: 99%
growth at 0.1 µM [30]: 95%
growth at 0.1 µM [31]: 97%

CCS/C(Nc1ccccc1)=C(\C#N)C(=O)Nc1ccc(OC)cc1
growth at 0.01 µM [1]: 100%
growth at 10 µM [2]: 37%
growth at 10 µM [3]: 21%
growth at 0.01 µM [4]: 101%
growth at 0.1 µM [5]: 81%
growth at 0.1 µM [6]: 88%
growth at 1 µM [7]: 96%
growth at 0.01 µM [8]: 103%
growth at 1 µM [9]: 69%
growth at 100 µM [10]: 7%
growth at 100 µM [11]: 6%
GI50 ([12]; read-out: GI50): 2.61 µM
CC50 [12, 32]: > 100 µM
TGI ([12]; read-out: TGI): 8.59 µM
GI50 ([12]; read-out: pGI50 (converted)): 2.63 µM
CC50 [12, 33]: > 100 µM
TGI ([12]; read-out: pTGI (converted)): 8.51 µM
growth at 10 µM [13]: 6%
growth at 10 µM [14]: -49%
growth at 100 µM [15]: -18%
growth at 100 µM [16]: 14%
growth at 10 µM [17]: -9%
growth at 100 µM [18]: 18%
growth at 10 µM [19]: 26%
growth at 0.1 µM [20]: 86%
growth at 1 µM [21]: 98%
growth at 1 µM [22]: 86%
GI50 ([23]; read-out: GI50): 4.42 µM
CC50 [23, 32]: > 100 µM
TGI ([23]; read-out: TGI): > 100 µM
GI50 ([23]; read-out: pGI50 (converted)): 4.47 µM
CC50 [23, 33]: > 100 µM
TGI ([23]; read-out: pTGI): > 100 µM
growth at 1 µM [24]: 99%
growth at 0.1 µM [25]: 97%
growth at 0.1 µM [26]: 88%
growth at 0.01 µM [27]: 102%
growth at 1 µM [28]: 70%
growth at 1 µM [29]: 98%
growth at 0.1 µM [30]: 91%
growth at 0.1 µM [31]: 99%
